Experimental data taken from PubChem BioAssay AID1919010 (Molecular Pharmacology Branch, DTP, NCI, 2023).

Tested on: Hs578T complex spheroid growth, percent test/control
Assay: Anticancer human tumor Hs578T cell line growth inhibition [AhR];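 also: luminescent viability signal as a proxy for spheroid growth; spheroids exposed to agents for one week after three days of growth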
Details: for IC50: curve of first compound; for viability, T/C: stronger effect = lower value
Outline: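 Agents were dosed in half-log steps down from roughly clinical Cmax, or from 10 microM where Cmax was unknown, alone and with AhR antagonists. Read-out: percent test/control growth of tumor spheroids containing HUVEC and MSC stromal cells.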

[1] = second compound 0.1 µM, first compound 0.0316 µM
[2] = second compound 0.1 µM, first compound 0.1 µM
[3] = second compound 0.1 µM, first compound 0.316 µM
[4] = second compound 0.1 µM, first compound 1 µM
[5] = second compound 0.316 µM, first compound 0.0316 µM
[6] = second compound 0.316 µM, first compound 0.1 µM
[7] = second compound 0.316 µM, first compound 0.316 µM
[8] = second compound 0.316 µM, first compound 1 µM
[9] = second compound 1 µM, first compound 0.0316 µM
[10] = second compound 1 µM, first compound 0.1 µM
[11] = second compound 1 µM, first compound 0.316 µM
[12] = second compound 1 µM, first compound 1 µM
[13] = second compound 3.16 µM, first compound 0.0316 µM
[14] = second compound 3.16 µM, first compound 0.1 µM
[15] = second compound 3.16 µM, first compound 0.316 µM
[16] = second compound 3.16 µM, first compound 1 µM
[17] = second compound 10 µM, first compound 0.0316 µM
[18] = second compound 10 µM, first compound 0.1 µM
[19] = second compound 10 µM, first compound 0.316 µM
[20] = second compound 10 µM, first compound 1 µM
[21] = second compound 0.1 µM, first compound 0.00949 µM
[22] = second compound 0.1 µM, first compound 0.03 µM
[23] = second compound 0.1 µM, first compound 0.0949 µM
[24] = second compound 0.1 µM, first compound 0.3 µM
[25] = second compound 0.1 µM, first compound 0.949 µM
[26] = second compound 0.1 µM, first compound 3 µM
[27] = second compound 0.316 µM, first compound 0.00949 µM
[28] = second compound 0.316 µM, first compound 0.03 µM
[29] = second compound 0.316 µM, first compound 0.0949 µM
[30] = second compound 0.316 µM, first compound 0.3 µM
[31] = second compound 0.316 µM, first compound 0.949 µM
[32] = second compound 0.316 µM, first compound 3 µM
[33] = second compound 1 µM, first compound 0.00949 µM
[34] = second compound 1 µM, first compound 0.03 µM
[35] = second compound 1 µM, first compound 0.0949 µM
[36] = second compound 1 µM, first compound 0.3 µM
[37] = second compound 1 µM, first compound 0.949 µM
[38] = second compound 1 µM, first compound 3 µM
[39] = second compound 3.16 µM, first compound 0.00949 µM
[40] = second compound 3.16 µM, first compound 0.03 µM
[41] = second compound 3.16 µM, first compound 0.0949 µM
[42] = second compound 3.16 µM, first compound 0.3 µM
[43] = second compound 3.16 µM, first compound 0.949 µM
[44] = second compound 3.16 µM, first compound 3 µM
[45] = second compound 10 µM, first compound 0.00949 µM
[46] = second compound 10 µM, first compound 0.03 µM
[47] = second compound 10 µM, first compound 0.0949 µM
[48] = second compound 10 µM, first compound 0.3 µM
[49] = second compound 10 µM, first compound 0.949 µM
[50] = second compound 10 µM, first compound 3 µM

Structure (SMILES): CC1COCCN1c1cc(-c2ccnn2C)c2ccnc(-c3ccn[nH]3)c2n1 (stereo not given) + Cc1ccccc1N=Nc1ccc(NC(=O)c2ccnn2C)c(C)c1
- IC50 (second compound 0.1 µM): 315 nM
- IC50 (second compound 0.316 µM): 292 nM
- IC50 (second compound 1 µM): 266 nM
- IC50 (second compound 3.16 µM): 283 nM
- IC50 (second compound 10 µM): 182 nM
- viability, T/C (second compound 0.1 µM, first compound 0.00316 µM): 107%
- viability, T/C (second compound 0.1 µM, first compound 0.01 µM): 109%
- viability, T/C [1]: 97%
- viability, T/C [2]: 80.8%
- viability, T/C [3]: 48.9%
- viability, T/C [4]: 35%
- viability, T/C (second compound 0.316 µM, first compound 0.00316 µM): 105%
- viability, T/C (second compound 0.316 µM, first compound 0.01 µM): 128%
- viability, T/C [5]: 109%
- viability, T/C [6]: 88%
- viability, T/C [7]: 46.6%
- viability, T/C [8]: 39.1%
- viability, T/C (second compound 1 µM, first compound 0.00316 µM): 106%
- viability, T/C (second compound 1 µM, first compound 0.01 µM): 109%
- viability, T/C [9]: 109%
- viability, T/C [10]: 85.6%
- viability, T/C [11]: 44.2%
- viability, T/C [12]: 32.1%
- viability, T/C (second compound 3.16 µM, first compound 0.00316 µM): 106%
- viability, T/C (second compound 3.16 µM, first compound 0.01 µM): 97.5%
- viability, T/C [13]: 89.7%
- viability, T/C [14]: 78%
- viability, T/C [15]: 43.5%
- viability, T/C [16]: 37%
- viability, T/C (second compound 10 µM, first compound 0.00316 µM): 69.1%
- viability, T/C (second compound 10 µM, first compound 0.01 µM): 64.7%
- viability, T/C [17]: 65%
- viability, T/C [18]: 59.8%
- viability, T/C [19]: 40.1%
- viability, T/C [20]: 41.9%

Structure (SMILES): CC1COCCN1c1cc(C2(S(C)(=N)=O)CC2)nc(-c2ccnc3[nH]ccc23)n1 (stereo not given) + Cc1ccccc1N=Nc1ccc(NC(=O)c2ccnn2C)c(C)c1
- IC50 (second compound 0.1 µM): 9250 nM
- IC50 (second compound 0.316 µM): > 10000 nM
- IC50 (second compound 1 µM): 9240 nM
- IC50 (second compound 3.16 µM): > 10000 nM
- IC50 (second compound 10 µM): > 10000 nM
- viability, T/C [1]: 110%
- viability, T/C [2]: 102%
- viability, T/C [3]: 102%
- viability, T/C [4]: 96.6%
- viability, T/C (second compound 0.1 µM, first compound 3.16 µM): 77.9%
- viability, T/C (second compound 0.1 µM, first compound 10 µM): 47.9%
- viability, T/C [5]: 101%
- viability, T/C [6]: 101%
- viability, T/C [7]: 100%
- viability, T/C [8]: 93.4%
- viability, T/C (second compound 0.316 µM, first compound 3.16 µM): 76.9%
- viability, T/C (second compound 0.316 µM, first compound 10 µM): 52.4%
- viability, T/C [9]: 94.6%
- viability, T/C [10]: 102%
- viability, T/C [11]: 99.5%
- viability, T/C [12]: 86.3%
- viability, T/C (second compound 1 µM, first compound 3.16 µM): 73.7%
- viability, T/C (second compound 1 µM, first compound 10 µM): 48.1%
- viability, T/C [13]: 85.4%
- viability, T/C [14]: 93.3%
- viability, T/C [15]: 89.7%
- viability, T/C [16]: 84.4%
- viability, T/C (second compound 3.16 µM, first compound 3.16 µM): 69.2%
- viability, T/C (second compound 3.16 µM, first compound 10 µM): 51.4%
- viability, T/C [17]: 62.9%
- viability, T/C [18]: 62%
- viability, T/C [19]: 76.1%
- viability, T/C [20]: 68.5%
- viability, T/C (second compound 10 µM, first compound 3.16 µM): 61.6%
- viability, T/C (second compound 10 µM, first compound 10 µM): 47.7%

Structure (SMILES): CCN(c1cc(-c2ccc(CN3CCOCC3)cc2)cc(C(=O)NCc2c(C)cc(C)[nH]c2=O)c1C)C1CCOCC1 + Cc1ccccc1N=Nc1ccc(NC(=O)c2ccnn2C)c(C)c1
- IC50 (second compound 0.1 µM): > 3000 nM
- IC50 (second compound 0.316 µM): > 3000 nM
- IC50 (second compound 1 µM): > 3000 nM
- IC50 (second compound 3.16 µM): > 3000 nM
- IC50 (second compound 10 µM): > 3000 nM
- viability, T/C [21]: 97.5%
- viability, T/C [22]: 103%
- viability, T/C [23]: 94.1%
- viability, T/C [24]: 99.4%
- viability, T/C [25]: 94.4%
- viability, T/C [26]: 93%
- viability, T/C [27]: 106%
- viability, T/C [28]: 107%
- viability, T/C [29]: 104%
- viability, T/C [30]: 111%
- viability, T/C [31]: 108%
- viability, T/C [32]: 93.8%
- viability, T/C [33]: 99.9%
- viability, T/C [34]: 106%
- viability, T/C [35]: 104%
- viability, T/C [36]: 99.7%
- viability, T/C [37]: 102%
- viability, T/C [38]: 94.9%
- viability, T/C [39]: 95.3%
- viability, T/C [40]: 88%
- viability, T/C [41]: 98.6%
- viability, T/C [42]: 83.2%
- viability, T/C [43]: 89.8%
- viability, T/C [44]: 82.7%
- viability, T/C [45]: 63.9%
- viability, T/C [46]: 67.5%
- viability, T/C [47]: 74%
- viability, T/C [48]: 66.8%
- viability, T/C [49]: 64%
- viability, T/C [50]: 67%

Structure (SMILES): Nc1ncn(C2CC(O)C(CO)S2)c(=O)n1 (stereo not given) + Cc1ccccc1N=Nc1ccc(NC(=O)c2ccnn2C)c(C)c1
- IC50 (second compound 0.1 µM): > 300 nM
- IC50 (second compound 0.316 µM): > 300 nM
- IC50 (second compound 1 µM): > 300 nM
- IC50 (second compound 3.16 µM): > 300 nM
- IC50 (second compound 10 µM): > 300 nM
- viability, T/C (second compound 0.1 µM, first compound 0.000949 µM): 103%
- viability, T/C (second compound 0.1 µM, first compound 0.003 µM): 109%
- viability, T/C [21]: 102%
- viability, T/C [22]: 99.8%
- viability, T/C [23]: 98.1%
- viability, T/C [24]: 85%
- viability, T/C (second compound 0.316 µM, first compound 0.000949 µM): 117%
- viability, T/C (second compound 0.316 µM, first compound 0.003 µM): 101%
- viability, T/C [27]: 103%
- viability, T/C [28]: 102%
- viability, T/C [29]: 94.3%
- viability, T/C [30]: 96.5%
- viability, T/C (second compound 1 µM, first compound 0.000949 µM): 106%
- viability, T/C (second compound 1 µM, first compound 0.003 µM): 112%
- viability, T/C [33]: 106%
- viability, T/C [34]: 90.5%
- viability, T/C [35]: 94.8%
- viability, T/C [36]: 84%
- viability, T/C (second compound 3.16 µM, first compound 0.000949 µM): 83%
- viability, T/C (second compound 3.16 µM, first compound 0.003 µM): 98.8%
- viability, T/C [39]: 94.7%
- viability, T/C [40]: 83.9%
- viability, T/C [41]: 90.7%
- viability, T/C [42]: 87.2%
- viability, T/C (second compound 10 µM, first compound 0.000949 µM): 65.3%
- viability, T/C (second compound 10 µM, first compound 0.003 µM): 67%
- viability, T/C [45]: 68%
- viability, T/C [46]: 64%
- viability, T/C [47]: 69.1%
- viability, T/C [48]: 66.6%

Structure (SMILES): O=C(C=Cn1cnc(-c2cc(C(F)(F)F)cc(C(F)(F)F)c2)n1)NNc1cnccn1 + Cc1ccccc1N=Nc1ccc(NC(=O)c2ccnn2C)c(C)c1
- IC50 (second compound 0.1 µM): 177 nM
- IC50 (second compound 0.316 µM): 184 nM
- IC50 (second compound 1 µM): 165 nM
- IC50 (second compound 3.16 µM): 171 nM
- IC50 (second compound 10 µM): 84.5 nM
- viability, T/C [21]: 85%
- viability, T/C [22]: 90.5%
- viability, T/C [23]: 72.8%
- viability, T/C [24]: 30.3%
- viability, T/C [25]: 11.2%
- viability, T/C [26]: 10.7%
- viability, T/C [27]: 91.6%
- viability, T/C [28]: 88.5%
- viability, T/C [29]: 76.9%
- viability, T/C [30]: 30.3%
- viability, T/C [31]: 8.26%
- viability, T/C [32]: 10.9%
- viability, T/C [33]: 87%
- viability, T/C [34]: 82.5%
- viability, T/C [35]: 68.8%
- viability, T/C [36]: 30.2%
- viability, T/C [37]: 10.4%
- viability, T/C [38]: 13.2%
- viability, T/C [39]: 84%
- viability, T/C [40]: 79.8%
- viability, T/C [41]: 70.7%
- viability, T/C [42]: 30.8%
- viability, T/C [43]: 9.79%
- viability, T/C [44]: 13%
- viability, T/C [45]: 68%
- viability, T/C [46]: 64.2%
- viability, T/C [47]: 47%
- viability, T/C [48]: 29.6%
- viability, T/C [49]: 11.9%
- viability, T/C [50]: 12.1%
